Results published in PMC9231089, “Sorafenib Chemosensitization by Caryophyllane Sesquiterpenes in Liver, Biliary, and Pancreatic Cancer Cells: The Role of STAT3/ABC Transporter Axis” (Pharmaceutics, 2022).
Structures can show the parent of a compound that is named as a salt. One block for each molecule: values may come before it.

Experiments:
[1] = test system: MDR1; test: RT-qPCR gene expression in Bx-PC3 cells, MDR1; conditions: for increase of MDR1 gene expression with respect to control: substance alone, 4 h exposure + 72 h recovery
Procedure: (§5) Confluent cells were treated with the test substances, both alone or in combination with the anticancer drug, for 4 h, then washed and incubated for a further 72 h (Figure 1), according to previously published protocols [20]. […] Suitable vehicle controls were also included.
(§6) The results of mRNA abundance for the targeted genes in each sample were normalized on the basis of GAPDH (Bio-Rad, Hercules, CA, USA) mRNA. Data are expressed as 2^−ΔCt, calculated using the CFX Manager software (Bio-Rad).

[2] = test system: MRP2; test: Immunofluorescence analysis in Bx-PC3 cells, MRP2; type: cell-based, human
Procedure: (§1) Suitable vehicle controls were also included.
(§2) The analysis was performed according to previously published methods. Confluent cells were seeded in 24-well plates (2 × 10^4 cells/well), allowed to adhere overnight, then treated as described above. After treatment, cells were fixed in pure methanol and washed with 4% bovine serum albumin (BSA) and PBS + Tween 20 (PBS-T) for 1 h. […] The expression and localization of Pgp, MRP1, and MRP2 pumps into cells were analyzed by using a Cytation 1 Cell Imaging Multimode Reader (Biotech, USA).

[3] = test system: MRP1/2; test: ABC-mediated drug efflux assay, calcein-AM accumulation, Mz-ChA-1 cells; type: cell-based, human; conditions: 2 h pre-treatment, sesquiterpenes 10 μg/mL, vs control
Procedure: (§7) Fluorescence was measured at excitation and emission wavelengths of 485 nm and 535 nm for both probes, using a Cytation 1 Cell Imaging Multimode Reader (Biotech, Santa Clara, CA, USA). Results were normalized to viable cells and expressed as percentage of the negative control.

[4] = test system: MRP1; test: RT-qPCR gene expression in Bx-PC3 cells, MRP1; type: cell-based, human
Source text: as §1

[5] = test system: Pgp; test: Immunofluorescence analysis in Bx-PC3 cells, Pgp; type: cell-based, human; conditions: for effect on Pgp expression (immunofluorescence): substance alone, sorafenib and sesquiterpenes 10 µg/mL, verapamil 1 µg/mL
Procedure: as §1, §2

[6] = design: method as in PMID 33081075; conditions: European Food Safety Authority; cited from earlier work
[7] = test system: phospho(Tyr705)-STAT3; test: Western blotting of STAT3 phosphorylation in Bx-PC3 cells; type: cell-based, human; conditions: for increase of STAT3 phosphorylation at tyrosine 705: substance alone, sorafenib and sesquiterpenes 10 μg/mL, verapamil/MK571 1 μg/mL, normalized to total STAT3; for reduction of phospho(Tyr705)-STAT3 with respect to sorafenib: substance in combination with sorafenib 10 μg/mL
Procedure: as §1
Confluent cells were seeded in 6-well plates (5 × 10^5 cells/well), treated as described above, then harvested by centrifugation and washed in PBS. After lysis with a suitable buffer, the Western blotting analysis was carried out, according to previously published methods. […] The levels of phospho(Tyr705)-STAT3 were normalized against total STAT3 ones.

[8] = test system: HepG2; test: MTT cytotoxicity assay, substances alone, HepG2; type: cell-based, human; conditions: for IC50 higher than that of sorafenib / inhibition of cell viability: HepG2
Procedure: as §1
(§3) The effect of the treatments on cell viability was measured by the MTT assay as previously described. A higher than 30% reduction of cell viability was considered as a significant cytotoxic effect.

[9] = test system: MRP2; test: RT-qPCR gene expression in Bx-PC3 cells, MRP2
Procedure: as §5, §6

[10] = test system: Bx-PC3; test: MTT cytotoxicity assay, substances alone, Bx-PC3; type: cell-based, human; conditions: for IC50: Homo sapiens, BXPC-3, substance alone, 4 h exposure + 72 h recovery
Procedure: as §1, §3

[11] = test system: Mz-ChA-1; test: MTT cytotoxicity assay, substances alone, Mz-ChA-1; type: cell-based, human; conditions: for IC50: Homo sapiens, substance alone, 4 h exposure + 72 h recovery
Procedure: as §1, §3

[12] = test system: Bx-PC3; test: Combination assay with sorafenib (MTT), Bx-PC3; type: cell-based, human;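 on increase of sorafenib cytotoxicity in combination: percent increase of sorafenib cell viability inhibition versus sorafenib alone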
Procedure: as §1
(§4) The type of interaction (synergistic, additive, or antagonistic) among sorafenib and test substances or positive controls was evaluated by measuring the reversal ratio value (RR), combination index (CI), and isobolographic analysis (IB), as previously described.

[13] = test system: MRP1/2; test: ABC-mediated drug efflux assay, calcein-AM accumulation, Bx-PC3 cells; type: cell-based, human; conditions: 2 h pre-treatment, sesquiterpenes 10 μg/mL, MK571 1 μg/mL, vs control
Procedure: as §7

[14] = test system: MRP1/2; test: ABC-mediated drug efflux assay, calcein-AM accumulation, HepG2 cells; type: cell-based, human; conditions: 2 h pre-treatment, sesquiterpenes 10 μg/mL, vs control
Procedure: as §7

[15] = test system: MRP1; test: Immunofluorescence analysis in Bx-PC3 cells, MRP1; type: cell-based, human
Procedure: as §1, §2

[16] = test system: HepG2; test: Combination assay with sorafenib (MTT), HepG2; type: cell-based, human; conditions: for increase of sorafenib cytotoxicity in combination: verapamil/MK571 1 µg/mL or sesquiterpenes 10 µg/mL;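 on increase of sorafenib cytotoxicity in combination: percent increase of sorafenib cell viability inhibition versus sorafenib alone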
Procedure: as §1, §4

[17] = test system: Bx-PC3 cells; test: Wound healing assay (cell migration); type: cell-based, human; conditions: for wound area / cell migration after 72 h: substance alone, sesquiterpenes 10 µg/mL, verapamil/MK571 1 µg/mL; for increase of wound area: substance in combination with sorafenib 10 µg/mL, reference and time not stated
Procedure: To evaluate the effect of caryophyllane sesquiterpenes, both alone and in combination with sorafenib, on the cell migration rate, the wound healing assay was performed. Bx-PC3 cells were seeded in 24-well plate at a density of 2.5 × 10^5 cells/well. After 24 h, the wound was created by scratching the well bottom with a 100 μL pipette tip, then the cells were treated under the scheduled conditions and images were captured at 0, 4, and 72 h using a Cytation 1 Cell Imaging Multi-Mode Reader. […] Results were expressed as wound area percentage with respect to that of the same well at zero time. The positive controls were also included.

[18] = test system: noncancerous H69 cholangiocytes; test: MTT cytotoxicity assay (tolerability), substances alone, H69; type: cell-based, human; conditions: for CC50: Homo sapiens, H69 noncancerous cholangiocytes, substance alone, 4 h exposure + 72 h recovery, read-out: IC50 (CL); for higher cytotoxicity in normal H69 cells than in cancerous Mz-ChA-1 cholangiocytes (IC50 comparison): H69 vs Mz-ChA-1
Procedure: as §1, §3

[19] = test system: noncancerous H69 cholangiocytes; test: Combination assay with sorafenib (MTT), tolerability in H69; type: cell-based, human
Procedure: as §1, §4

[20] = test system: Mz-ChA-1; test: Combination assay with sorafenib (MTT), Mz-ChA-1; type: cell-based, human;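 on increase of sorafenib cytotoxicity in combination: percent increase of sorafenib cell viability inhibition versus sorafenib alone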
Procedure: as §1, §4

[21] = substance 10 µg/mL in combination with sorafenib 10 µg/mL
[22] = substance in combination with sorafenib, given for MRP1 and MRP2 together
[23] = sorafenib 10 µg/mL, verapamil/MK571 1 µg/mL or sesquiterpenes 10 µg/mL

- reduction of sorafenib IC50 in the presence of the substance [12]: 5 fold
- reduction of sorafenib IC50 in the presence of the substance [16]: approximately 2.9 fold
Compound: C=C1CC/C=C(\C)CC[C@@H]2[C@@H]1CC2(C)C [β-Caryophyllene, β-caryophyllene]
- increase of MDR1 gene expression with respect to control [1]: 2.7 fold
- downregulation of MDR1 gene with respect to sorafenib alone ([1]; substance in combination with sorafenib): 1.9 fold
- reduction of MRP2 expression with respect to sorafenib [2, 21]: 1.3 fold
- increase of MRP2 expression (immunofluorescence) ([2]; substance alone, 10 µg/mL): 1.4 fold
- increase of calcein-AM accumulation [3]: 1.3 fold
- reduction of MRP1 gene expression [4, 22]: 4 fold
- effect on Pgp expression (immunofluorescence) [5]: did not affect
- reduction of Pgp expression compared to control ([5]; substance in combination with sorafenib 10 μg/mL): ~1.9 fold
- considered safe up to (approved as flavoring) [6]: ≤ 222 mg/kg/die
- increase of STAT3 phosphorylation at tyrosine 705 [7]: approximately 3 fold
- reduction of phospho(Tyr705)-STAT3 with respect to sorafenib [7]: 2.1 fold
- IC50 higher than that of sorafenib [8]: 1.6 fold
- reduction of MRP2 gene expression [9, 22]: 4 fold
- IC50 higher than that of sorafenib [10]: comparable
- higher cytotoxicity with respect to β-caryophyllene oxide [10]: ~1.8 fold
- inhibition of cell viability ([10]; 50 µg/mL): 70%
- inhibition of cell viability ([10]; 250 µg/mL): 95%
- IC50 [10]: 36.3 µg/mL
- IC50 ([11]; Mz-ChA-1): 62.7 µg/mL
- IC50 lower with respect to sorafenib ([11]; Mz-ChA-1): approximately 1.2 fold
- higher cytotoxicity with respect to β-caryophyllene oxide ([11]; Mz-ChA-1): approximately 1.5 fold
- inhibition of cell viability ([11]; Mz-ChA-1, 50 µg/mL): 35%
- inhibition of cell viability ([11]; Mz-ChA-1, 250 µg/mL): 96%
- combination index (CI) with sorafenib ([12]; CI lower than 1 = synergistic): 0.46
- increase of sorafenib cytotoxicity in combination ([12]; sesquiterpenes 10 µg/mL, sorafenib concentration not stated (Figure 3F)): 56%
- increase of calcein-AM accumulation [13]: 1.9 fold
- increase of calcein-AM accumulation [14]: 1.2 fold
- reduction of MRP1 expression with respect to sorafenib [15, 21]: 1.8 fold
- combination index (CI) with sorafenib ([16]; CI lower than 1 = synergistic): 0.47
- increase of sorafenib cytotoxicity in combination ([16]; sorafenib 1 µg/mL): 5%
- increase of sorafenib cytotoxicity in combination ([16]; sorafenib 10 µg/mL): approximately 33%
- wound area / cell migration after 72 h [17]: almost complete closure of wound area
- increase of wound area [17]: ~4.1 fold
- CC50 [18]: 67 µg/mL
- effect on sorafenib cytotoxicity in noncancerous cells ([19]; sesquiterpene 10 μg/mL combined with sorafenib (protective effect at sorafenib 10 μg/mL)): slight protective effects
- reduction of sorafenib IC50 in the presence of the substance [20]: approximately 1.7 fold
- combination index (CI) with sorafenib ([20]; CI lower than 1 = synergistic): 0.74
- increase of sorafenib cytotoxicity in combination [20, 23]: 19%
- increase of sorafenib cytotoxicity in combination ([20]; sorafenib 50 µg/mL, sesquiterpenes 10 µg/mL): 17%

Compound: COc1ccc(CCN(C)CCCC(C#N)(c2ccc(OC)c(OC)c2)C(C)C)cc1OC (centres unmarked) [Verapamil, verapamil hydrochloride, reference compound]
- increase of STAT3 phosphorylation at tyrosine 705 [7]: 1.1 fold
- reduction of phospho(Tyr705)-STAT3 with respect to sorafenib [7]: lower reduction
- reduction of sorafenib IC50 in the presence of the substance [12]: ~2 fold
- reduction of sorafenib IC50 in the presence of the substance [16]: approximately 3 fold
- increase of wound area [17]: lowered the anti-migration effect of sorafenib
- reduction of sorafenib IC50 in the presence of the substance [20]: 1.5 fold

- reduction of sorafenib IC50 in the presence of the substance [12]: ~3.9 fold
- reduction of sorafenib IC50 in the presence of the substance [16]: ~6 fold
Compound: CN(C)C(=O)CCSC(SCCC(=O)O)c1cccc(/C=C/c2ccc3ccc(Cl)cc3n2)c1 (centres unmarked) [MK571, reference compound]
- effect on MRP2 transporter expression (immunofluorescence) ([2]; substance alone): significantly lowered
- increase of STAT3 phosphorylation at tyrosine 705 [7]: 1.5 fold
- reduction of phospho(Tyr705)-STAT3 with respect to sorafenib [7]: 3.7 fold
- IC50 higher than that of sorafenib [8]: comparable
- inhibition of cell viability ([8]; 50 µg/mL): 50%
- IC50 higher than that of sorafenib [10]: 2.5 fold
- inhibition of cell viability ([10]; 50 µg/mL): ~33%
- inhibition of cell viability ([10]; 250 µg/mL): ~90%
- IC50 [10]: 78.5 µg/mL
- IC50 ([11]; Mz-ChA-1): 94.6 µg/mL
- IC50 higher than that of sorafenib ([11]; Mz-ChA-1): 1.2 fold
- inhibition of cell viability ([11]; Mz-ChA-1, 50 µg/mL): approximately 15%
- inhibition of cell viability ([11]; Mz-ChA-1, 250 µg/mL): ~90%
- increase of sorafenib cytotoxicity in combination ([12]; sorafenib 1 µg/mL, verapamil/MK571 1 µg/mL or sesquiterpenes 10 µg/mL): ~10%
- increase of sorafenib cytotoxicity in combination ([12]; sorafenib 10 µg/mL, verapamil/MK571 1 µg/mL): ~47%
- increase of sorafenib cytotoxicity in combination ([16]; sorafenib 1 µg/mL): ~23%
- increase of sorafenib cytotoxicity in combination ([16]; sorafenib 10 µg/mL): ~40%
- wound area / cell migration after 72 h [17]: almost complete closure of wound area
- increase of wound area [17]: approximately 3.7 fold
- higher cytotoxicity in normal H69 cells than in cancerous Mz-ChA-1 cholangiocytes (IC50 comparison) [18]: ~2.9 fold
- CC50 [18]: 32.6 µg/mL
- reduction of cell viability with respect to sorafenib alone ([19]; combination with 1 µg/mL and 10 µg/mL sorafenib, verapamil/MK571 1 µg/mL): ~15%
- reduction of sorafenib IC50 in the presence of the substance [20]: 1.7 fold
- increase of sorafenib cytotoxicity in combination ([20]; sorafenib 1 µg/mL, verapamil/MK571 1 µg/mL): 3%
- increase of sorafenib cytotoxicity in combination [20, 23]: 20%

Compound: CNC(=O)c1cc(Oc2ccc(NC(=O)Nc3ccc(Cl)c(C(F)(F)F)c3)cc2)ccn1 [Sorafenib, sorafenib tosylate]
- increase of MDR1 gene expression with respect to control [1]: 3.6 fold
- effect on MRP2 transporter expression (immunofluorescence) ([2]; substance alone): significantly lowered
- decrease of MRP1 gene expression ([4]; substance alone): ~2 fold
- effect on Pgp expression (immunofluorescence) [5]: slight increase
- increase of STAT3 phosphorylation at tyrosine 705 [7]: 4.6 fold
- inhibition of cell viability ([8]; 10 µg/mL): approximately 10%
- inhibition of cell viability ([8]; 500 µg/mL): 95%
- IC50 higher with respect to Bx-PC3 cells ([8]; HepG2 vs Bx-PC3): approximately 1.5 fold
- decrease of MRP2 gene expression ([9]; substance alone): ~2 fold
- inhibition of cell viability ([10]; 50 µg/mL): 70%
- IC50 [10]: 31 µg/mL
- cell viability at the higher tested concentrations ([10]; concentrations higher than 50 µg/mL): almost completely inhibited
- IC50 ([11]; Mz-ChA-1): 76.1 µg/mL
- inhibition of cell viability ([11]; Mz-ChA-1, 50 µg/mL): about 30%
- inhibition of cell viability ([11]; Mz-ChA-1, 250 µg/mL): about 90%
- IC50 higher with respect to Bx-PC3 cells ([11]; Mz-ChA-1 vs Bx-PC3): ~2.4 fold
- lowering of MRP1 expression compared to control (immunofluorescence) ([15]; substance alone, 10 µg/mL): 1.2 fold
- change of wound area after 4 h ([17]; sorafenib 10 µg/mL alone): slight reduction
- increase of wound area at 72 h ([17]; sorafenib 10 µg/mL alone): 1.2 fold
- higher cytotoxicity in normal H69 cells than in cancerous Mz-ChA-1 cholangiocytes (IC50 comparison) [18]: approximately 1.5 fold
- CC50 [18]: 50.3 µg/mL
